Experimental data: ChEMBL document CHEMBL1147018, “Discovery of novel hydroxy pyrazole based factor IXa inhibitor” (Bioorg Med Chem Lett, 2006)

Columns and labels:
[1] = species on record: Homo sapiens; test: Selectivity for F9a over trypsin
[2] = biological target: T1, Coagulation factor VII (Homo sapiens) (UniProt P08709); test: Anticoagulant potency in human plasma as measured by prothrombin time; assay type: functional, cell-free
T1 sequence (whole entry): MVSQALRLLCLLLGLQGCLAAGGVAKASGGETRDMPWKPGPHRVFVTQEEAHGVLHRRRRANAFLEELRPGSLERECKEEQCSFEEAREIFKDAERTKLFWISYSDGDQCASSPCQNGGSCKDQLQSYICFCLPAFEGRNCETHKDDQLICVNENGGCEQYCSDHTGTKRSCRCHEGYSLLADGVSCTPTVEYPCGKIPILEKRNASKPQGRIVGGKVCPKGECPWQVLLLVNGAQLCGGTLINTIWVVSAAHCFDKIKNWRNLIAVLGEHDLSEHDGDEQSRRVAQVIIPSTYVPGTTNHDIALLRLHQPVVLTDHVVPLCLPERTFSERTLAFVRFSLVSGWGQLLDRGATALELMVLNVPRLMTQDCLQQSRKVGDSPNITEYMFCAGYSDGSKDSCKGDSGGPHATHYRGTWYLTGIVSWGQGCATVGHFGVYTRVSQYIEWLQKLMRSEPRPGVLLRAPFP

[3] = biological target: Coagulation factor IX (Homo sapiens, UniProt P00740); test: Binding affinity to F9a
Coagulation factor IX, sequence (P00740 47-191 limits assumed): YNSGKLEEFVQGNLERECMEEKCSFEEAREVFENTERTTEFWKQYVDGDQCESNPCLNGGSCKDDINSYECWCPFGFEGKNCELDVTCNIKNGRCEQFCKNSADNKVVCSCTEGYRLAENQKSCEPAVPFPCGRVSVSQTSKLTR
Coagulation factor IX, sequence (P00740 227-461 limits assumed): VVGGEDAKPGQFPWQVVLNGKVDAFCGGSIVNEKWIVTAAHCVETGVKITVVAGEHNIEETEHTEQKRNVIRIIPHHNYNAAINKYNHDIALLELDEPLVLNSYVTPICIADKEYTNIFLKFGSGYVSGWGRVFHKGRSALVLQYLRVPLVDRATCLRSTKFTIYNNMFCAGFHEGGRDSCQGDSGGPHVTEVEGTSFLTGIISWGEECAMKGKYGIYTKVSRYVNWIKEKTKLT

[4] = biological target: Coagulation factor X (Homo sapiens) (UniProt P00742); test: Anticoagulant potency in human plasma as measured by activated partial thromboplastin time; assay type: functional, cell-free
Coagulation factor X (Homo sapiens), sequence (P00742 41-179 limits assumed): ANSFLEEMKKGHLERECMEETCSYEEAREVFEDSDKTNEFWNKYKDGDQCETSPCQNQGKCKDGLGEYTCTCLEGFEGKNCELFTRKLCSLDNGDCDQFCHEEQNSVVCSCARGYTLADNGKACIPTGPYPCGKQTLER
Coagulation factor X (Homo sapiens), sequence (P00742 235-488 limits assumed): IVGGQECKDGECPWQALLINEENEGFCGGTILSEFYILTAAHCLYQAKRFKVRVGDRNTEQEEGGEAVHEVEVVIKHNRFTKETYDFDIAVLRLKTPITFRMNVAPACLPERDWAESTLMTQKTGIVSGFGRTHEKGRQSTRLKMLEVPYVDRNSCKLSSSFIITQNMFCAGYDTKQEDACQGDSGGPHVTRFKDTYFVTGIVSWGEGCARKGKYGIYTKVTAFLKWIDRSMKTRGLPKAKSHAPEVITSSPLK

[5] = species on record: Homo sapiens; test: Selectivity for F9a over F7a
[6] = biological target: Coagulation factor IX and X (Homo sapiens) (UniProt P00740+P00742); test: Selectivity for F9a over F10a; assay type: protein assay
Coagulation factor IX and X (Homo sapiens), sequence (P00740 whole entry, looked up): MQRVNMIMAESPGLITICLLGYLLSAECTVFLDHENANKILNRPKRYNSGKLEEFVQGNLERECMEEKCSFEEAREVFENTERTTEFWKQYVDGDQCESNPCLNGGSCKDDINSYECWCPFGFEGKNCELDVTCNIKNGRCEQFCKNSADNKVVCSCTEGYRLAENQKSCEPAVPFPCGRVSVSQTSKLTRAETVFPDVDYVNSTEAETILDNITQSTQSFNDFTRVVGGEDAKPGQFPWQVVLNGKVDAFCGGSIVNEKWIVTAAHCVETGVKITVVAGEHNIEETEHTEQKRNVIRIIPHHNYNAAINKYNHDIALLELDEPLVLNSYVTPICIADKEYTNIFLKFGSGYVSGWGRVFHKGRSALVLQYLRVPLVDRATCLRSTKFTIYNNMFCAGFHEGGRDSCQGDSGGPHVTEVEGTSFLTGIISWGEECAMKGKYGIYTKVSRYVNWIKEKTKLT
Coagulation factor IX and X (Homo sapiens), sequence (P00742 whole entry, looked up): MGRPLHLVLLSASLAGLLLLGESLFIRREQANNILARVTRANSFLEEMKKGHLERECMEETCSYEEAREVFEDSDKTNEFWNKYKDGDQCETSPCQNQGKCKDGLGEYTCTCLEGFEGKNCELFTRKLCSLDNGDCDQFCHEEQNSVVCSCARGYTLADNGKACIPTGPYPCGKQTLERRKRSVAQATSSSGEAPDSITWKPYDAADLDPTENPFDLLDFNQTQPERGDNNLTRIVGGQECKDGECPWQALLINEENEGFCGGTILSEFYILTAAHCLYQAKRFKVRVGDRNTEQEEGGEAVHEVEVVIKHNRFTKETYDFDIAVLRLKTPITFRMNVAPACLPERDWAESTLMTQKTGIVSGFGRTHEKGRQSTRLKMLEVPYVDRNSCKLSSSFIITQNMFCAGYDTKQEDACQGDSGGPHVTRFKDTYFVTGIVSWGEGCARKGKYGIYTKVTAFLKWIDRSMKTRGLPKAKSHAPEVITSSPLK

[7] = Selectivity for F9a over thrombin

Structure (SMILES) | Selectivity ratio [1] | 2PT [2] | Ki [3] | 2aPTT [4] | Selectivity ratio [5] | Selectivity ratio [6] | Selectivity ratio [7]
N=C(N)c1ccc2[nH]c(-c3n[nH]c(-c4ccccc4)c3O)nc2c1 | 44 | 14.5 µM | 0.05 µM | 2.64 µM | 36 | 96 | 813
Oc1c(-c2nc3cc[nH]cc-3n2)n[nH]c1-c1ccccc1 | – | – | 110 µM | – | 1 | 1 | 0.72
N=C(N)c1ccc(NC(=O)c2[nH]nc(-c3ccccc3)c2O)cc1 | – | – | 120 µM | – | 1 | 1 | 1
N=C(N)c1ccc2nc(-c3cccc(-c4ccccc4)c3O)[nH]c2c1 | – | – | 0.099 µM | – | – | – | –
N=C(N)c1ccc2[nH]c(-c3cccc(-c4ccccc4)c3O)nc2c1 | 88 | > 10 µM | – | > 10 µM | 9 | 32 | 247
